{
  "source": "paper PMC6410202",
  "about": "“Dual Action of the PN159/KLAL/MAP Peptide: Increase of Drug Penetration across Caco-2 Intestinal Barrier Model by Modulation of Tight Junctions and Plasma Membrane Permeability” (Pharmaceutics, 2019)",
  "key": {"[1]": {"tested_on": "Caco-2 cell layers", "assay": "Transepithelial electrical resistance (TEER) of Caco-2 cell layers", "assay_type": "cell-based, human", "details": "for TEER, % of the control value: PN159 10 μM", "protocol": "For the measurement of barrier integrity Caco-2 cells were seeded onto culture inserts (Transwell 3460, polyester membrane, 0.4 µm pore size, Corning Costar) and cultured for three weeks. Transepithelial electrical resistance (TEER) reflects the tightness of the intercellular junctions. […]. Resistance of cell-free inserts (130 Ω × cm^2) was subtracted from the measured values. TEER values were measured before and right after permeability experiments). TEER values indicated the integrity and paracellular permeability of cell layers for ions. The TEER of Caco-2 monolayers was 1302 ± 49 Ω × cm^2 (mean ± SD; n = 46) after 3 weeks culturing. For the recovery experiment, after changing the 10 μM peptide solutions to culture medium, TEER was monitored for one day."}, "[2]": {"tested_on": "Pseudomonas aeruginosa (ATCC 27853)", "assay": "microbe, parasite or virus in culture", "details": "Muller–Hinton broth, 18 h", "protocol": "(§1) The MIC of PN159 on the 6 sensitive and resistant ESKAPE pathogenic strains was determined in cation-adjusted Muller–Hinton broth. […] Minimum inhibitory concentrations (MICs) were determined by using a standard serial broth dilution technique. Briefly, 11-step serial dilutions were prepared in 96-well microtiter plates with three biological replicates per strain. Pathogens were inoculated into each well at a density of 5×10^5 bacteria/mL, and the plates were incubated at 37 °C. Plates were shaken at 300 rpm during incubation for 18 h. Cell growth was monitored by measuring the optical density (OD600 value, Synergy 2 microplate reader BioTek Instruments Inc, Winooski, VT, USA). […] As reference compounds we tested the antimicrobial activity of three bactericidal drugs with different modes of action."}, "[3]": {"tested_on": "Enterobacter cloacae spp. cloacae (ATCC 13047)", "assay": "microbe, parasite or virus in culture", "details": "Muller–Hinton broth, 18 h", "protocol": "as §1"}, "[4]": {"tested_on": "Caco-2 cells", "assay": "Impedance measurement (RTCA), Caco-2 cells", "assay_type": "cell-based", "details": "PN159 1-100 μM, 1-h or one-day treatment", "protocol": "Kinetics of epithelial cell reaction to PN159 peptide treatment was monitored by impedance measurement at 10 kHz (RTCA-SP instrument, ACEA Biosciences, San Diego, CA, USA). Impedance measurement is non-invasive, label-free and real time, and linearly correlates with adherence, growth, number and viability of cells. For background measurements 50 μL cell culture medium was added to the wells, then cells were seeded at a density of 6 × 10^3 cells/well to the coated 96-well plates with integrated gold electrodes (E-plate 96, ACEA Biosciences). Cells were cultured for 5–7 days in a CO2 incubator at 37 °C and monitored every 10 min until the end of experiments. Cells were treated with PN159 peptide solutions at 1, 3, 10, 30 and 100 μM concentrations at the beginning of the plateau phase of growth and the effects were followed for 1-h or 24 h. To measure cell recovery, peptide solutions were changed to culture medium and the impedance was monitored for one week. Culture medium was changed every 2 days. Caco-2 cells were also treated with the three selected CPPs, Pep-1, R8 and φ-peptide, at 100 μM concentrations at the beginning of the plateau phase of cell growth for 24-h. Triton X-100 detergent (1 mg/mL) was used as a reference compound to induce cell death. Cell index was defined as Rn-Rb at each time point of measurement, where Rn is the cell-electrode impedance of the well when it contains cells and Rb is the background impedance of the well with the medium alone."}},
  "data": [
    {"compound": "CC(C)C[C@H](NC(=O)[C@H](C)NC(=O)[C@H](CCCCN)NC(=O)[C@H](CC(C)C)NC(=O)[C@H](C)NC(=O)[C@H](CC(C)C)NC(=O)[C@H](CCCCN)NC(=O)[C@H](CC(C)C)NC(=O)[C@H](C)NC(=O)[C@H](CC(C)C)NC(=O)[C@@H](N)CCCCN)C(=O)N[C@@H](CCCCN)C(=O)N[C@@H](C)C(=O)N[C@@H](C)C(=O)N[C@@H](CC(C)C)C(=O)N[C@@H](CCCCN)C(=O)N[C@@H](CC(C)C)C(=O)N[C@@H](C)C(N)=O", "note": "[PN159]", "values": [
      {"measurement": "TEER recovery", "setting": "[1]; 20 h after removal of PN159 (10 μM, 30 min)", "result": "complete recovery"},
      {"measurement": "TEER, % of the control value", "setting": "[1]; 1-min treatment", "result": 42, "unit": "%"},
      {"measurement": "TEER, % of the control value", "setting": "[1]; 5 min", "result": 16, "unit": "%"},
      {"measurement": "TEER, % of the control value", "setting": "[1]; 15 min", "result": 2.7, "unit": "%"},
      {"measurement": "TEER, % of the control value", "setting": "[1]; 30 min", "result": 1.4, "unit": "%"},
      {"measurement": "Decrease in TEER", "setting": "[1]; PN159 10 and 30 μM, 1-h treatment", "result": "80–90%"},
      {"measurement": "Resistance of epithelial cell layers (TEER)", "setting": "[1]; all tested concentrations (1, 3, 10, 30 μM), 1-h treatment", "result": "significantly decreased the resistance"},
      {"measurement": "MIC", "setting": "[2]", "result": 46.4, "unit": "µM"},
      {"measurement": "MIC", "setting": "[3]", "result": 31.0, "unit": "µM"},
      {"measurement": "Cell impedance (normalized cell index)", "setting": "[4]", "result": "only the two highest peptide concentrations decreased the cell impedance"}
    ]}
  ]
}
